The species named for test [1] is Homo sapiens. The experiment in a line: Selectivity ratio of IC50 for human recombinant MMP13 catalytic domain to IC50 for human TACE catalytic domain.
Test [2] has as its target Disintegrin and metalloproteinase domain-containing protein 17 (Homo sapiens, UniProt P78536). The experiment in a line: Inhibition of human TACE catalytic domain expressed in CHO cells by FRET assay. The test is classed as cell-based.
A further test has as its system Blood. The experiment in a line: Inhibition of LPS-induced TNFalpha production in human whole blood preincubated for 1 hrs before LPS challenge measured after 4 hrs by ELISA. The test is classed as functional, tissue-based. In general terms: An ELISA detects its analyte on a solid surface through an enzyme-linked reagent.
Test [3] deals with 72 kDa type IV collagenase (Homo sapiens, UniProt P08253). The experiment in a line: inhibition of human recombinant MMP2 catalytic domain.
72 kDa type IV collagenase, sequence (P08253 whole entry, the tested form may be a part): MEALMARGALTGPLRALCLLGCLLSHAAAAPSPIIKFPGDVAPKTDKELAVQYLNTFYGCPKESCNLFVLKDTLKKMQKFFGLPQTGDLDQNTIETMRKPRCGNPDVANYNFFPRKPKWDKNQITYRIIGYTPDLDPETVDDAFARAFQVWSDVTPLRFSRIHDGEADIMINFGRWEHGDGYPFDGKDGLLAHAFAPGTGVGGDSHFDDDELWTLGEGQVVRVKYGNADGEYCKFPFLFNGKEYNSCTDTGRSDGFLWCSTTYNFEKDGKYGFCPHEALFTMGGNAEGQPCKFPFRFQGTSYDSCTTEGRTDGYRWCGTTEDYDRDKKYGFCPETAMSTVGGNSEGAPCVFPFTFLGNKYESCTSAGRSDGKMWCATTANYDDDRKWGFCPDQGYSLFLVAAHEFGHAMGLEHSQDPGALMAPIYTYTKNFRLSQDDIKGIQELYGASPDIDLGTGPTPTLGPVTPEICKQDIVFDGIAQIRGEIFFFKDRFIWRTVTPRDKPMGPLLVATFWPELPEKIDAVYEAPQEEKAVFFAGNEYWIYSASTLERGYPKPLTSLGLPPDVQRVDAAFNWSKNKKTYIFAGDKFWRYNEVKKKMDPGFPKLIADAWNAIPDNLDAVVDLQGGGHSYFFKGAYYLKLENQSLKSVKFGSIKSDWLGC
The next test concerns the target Collagenase 3 (Homo sapiens, UniProt P45452). Put plainly: inhibition of human recombinant MMP13 catalytic domain.
Test [4] is filed under the species Homo sapiens. Put plainly: Selectivity ratio of IC50 for human recombinant MMP2 catalytic domain to IC50 for human TACE catalytic domain.
Another test deals with RAW264.7. The experiment in a line: Inhibition of LPS-induced TNFalpha production in mouse RAW264.7 cells preincubated for 1 hrs before LPS challenge measured after 4 hrs by ELISA. The test is classed as functional, cell-based.
The nature of test [5]: Selectivity for TACE over MMP14.
Test [6] in a line: Selectivity for TACE over MMP13.
A short description of test [7]: Selectivity for TACE over MMP2.
Test [8] in a line: Selectivity for TACE over MMP9.
Test [9] in a line: Selectivity for TACE over MMP1.
The target of test [10] is Matrix metalloproteinase-9 (Homo sapiens, UniProt P14780). The experiment in a line: inhibition of human recombinant MMP9 catalytic domain.
Matrix metalloproteinase-9, sequence (P14780 whole entry, the tested form may be a part): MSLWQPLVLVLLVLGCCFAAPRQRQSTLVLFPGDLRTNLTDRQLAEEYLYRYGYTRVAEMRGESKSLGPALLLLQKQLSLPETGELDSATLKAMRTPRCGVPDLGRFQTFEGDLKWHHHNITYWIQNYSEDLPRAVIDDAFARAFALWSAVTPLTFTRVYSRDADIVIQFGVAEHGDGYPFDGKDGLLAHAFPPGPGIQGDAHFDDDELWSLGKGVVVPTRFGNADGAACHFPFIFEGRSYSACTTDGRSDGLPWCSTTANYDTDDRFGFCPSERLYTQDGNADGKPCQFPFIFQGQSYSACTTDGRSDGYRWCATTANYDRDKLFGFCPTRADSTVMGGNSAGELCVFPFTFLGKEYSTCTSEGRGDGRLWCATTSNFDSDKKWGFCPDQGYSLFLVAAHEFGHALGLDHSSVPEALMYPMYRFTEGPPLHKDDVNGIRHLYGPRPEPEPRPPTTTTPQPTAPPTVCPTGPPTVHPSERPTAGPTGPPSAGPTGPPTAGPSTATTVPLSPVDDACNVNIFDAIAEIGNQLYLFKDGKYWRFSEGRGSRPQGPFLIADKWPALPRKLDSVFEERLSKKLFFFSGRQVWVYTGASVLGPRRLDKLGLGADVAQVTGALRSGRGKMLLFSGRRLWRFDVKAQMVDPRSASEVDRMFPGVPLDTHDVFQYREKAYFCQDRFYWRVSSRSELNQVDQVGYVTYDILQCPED

Experimental findings from ChEMBL document CHEMBL1136975, “Synthesis and activity of quinolinylmethyl P1' alpha-sulfone piperidine hydroxamate inhibitors of TACE” (Bioorg Med Chem Lett, 2009) are described below.

SMILES strings stand for the structures. Bounds are passed on as bounds.

Disintegrin and metalloproteinase domain-containing protein 17, sequence (P78536 whole entry, the tested form may be a part): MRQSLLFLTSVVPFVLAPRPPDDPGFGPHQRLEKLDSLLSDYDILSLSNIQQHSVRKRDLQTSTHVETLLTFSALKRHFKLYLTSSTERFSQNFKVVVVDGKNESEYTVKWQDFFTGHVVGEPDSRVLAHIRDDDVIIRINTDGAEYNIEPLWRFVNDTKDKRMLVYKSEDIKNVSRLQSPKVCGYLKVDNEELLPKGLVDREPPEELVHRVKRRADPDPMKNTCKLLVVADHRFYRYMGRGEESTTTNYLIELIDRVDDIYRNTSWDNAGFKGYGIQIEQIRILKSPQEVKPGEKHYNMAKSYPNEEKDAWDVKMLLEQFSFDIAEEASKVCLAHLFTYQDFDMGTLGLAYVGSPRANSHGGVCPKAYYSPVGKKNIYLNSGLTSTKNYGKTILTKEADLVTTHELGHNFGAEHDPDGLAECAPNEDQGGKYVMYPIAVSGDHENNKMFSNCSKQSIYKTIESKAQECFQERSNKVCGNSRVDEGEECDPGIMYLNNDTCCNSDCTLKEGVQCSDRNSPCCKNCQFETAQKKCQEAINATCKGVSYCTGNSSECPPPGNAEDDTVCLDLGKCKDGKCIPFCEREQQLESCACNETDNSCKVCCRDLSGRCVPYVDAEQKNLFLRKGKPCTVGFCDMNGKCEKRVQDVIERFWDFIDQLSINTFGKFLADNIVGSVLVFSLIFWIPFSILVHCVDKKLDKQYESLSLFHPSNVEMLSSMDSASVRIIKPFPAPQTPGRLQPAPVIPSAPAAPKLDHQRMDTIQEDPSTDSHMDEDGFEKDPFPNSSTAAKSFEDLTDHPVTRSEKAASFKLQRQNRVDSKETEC

For the compound `CC#CCOc1ccc(S(=O)(=O)C2(C(=O)NO)CCN(C(=O)OC(C)(C)C)CC2)cc1`, the Ratio IC50 in the test listed under Homo sapiens [1] is under 10.

As a reminder, the IC50 is the midpoint of a concentration-inhibition curve. With `Cc1cc(COc2ccc(S(=O)(=O)C3(C(=O)NO)CCN(C(=O)OC(C)(C)C)CC3)cc2)c2ccccc2n1`, the half-maximal inhibitory concentration (IC50) in [2] is under 1 nM; in the test with Blood it was over 50000 nM; in [3], 2670 nM; on Collagenase 3, 1110 nM; in the test on RAW264.7, over 1000 nM. The Ratio IC50 in the test filed under Homo sapiens [4] and in the test filed under Homo sapiens [1] was over 90 in each case.

Consider `CCNC(=O)N1CCC(C(=O)NO)(S(=O)(=O)c2ccc(OCc3cc(C)nc4ccccc34)cc2)CC1`, for which the IC50 in test [2] is 2 nM; in the test with Blood, 2500 nM; in test [3], 3610 nM; at Collagenase 3, 835 nM; with RAW264.7, 240 nM. For the same compound, the Ratio IC50 in the test filed under Homo sapiens [4] and in the test listed under Homo sapiens [1] was over 90 throughout.

For the compound `CC#CCOc1ccc(S(=O)(=O)C2(C(=O)NO)CCN(C(=O)c3ccccc3)CC2)cc1`, the Ratio IC50 in the test filed under Homo sapiens [1] was under 10.

As for `CC#CCOc1ccc(S(=O)(=O)C2(C(=O)NO)CCN(Cc3ccc(Cl)c(Cl)c3)CC2)cc1`, the values for the concentration for half-maximal inhibition (IC50) (in test [2]; on Collagenase 3) were 149 nM and 72 nM, respectively. Moreover, in the test listed under Homo sapiens [1], the Ratio IC50 is under 10.

Consider `CC#CCOc1ccc(S(=O)(=O)CC2(C(=O)NO)CCN(C(C)=O)CC2)cc1`, for which the half-maximal inhibitory concentration (IC50) amounted to 2 nM in [2], 8700 nM in the test with Blood and 490 nM with RAW264.7. Besides, the Selectivity ratio in test [5], in [6], in test [7], in test [8] and in test [9] was over 75 in each case.

Turning to `Cc1cc(COc2ccc(S(=O)(=O)C3(C(=O)NO)CCN(Cc4ccncc4)CC3)cc2)c2ccccc2n1`, the IC50 is 9 nM in [2]; 11000 nM in the test with Blood; 855 nM in test [3]; 266 nM on Collagenase 3; 378 nM in the test with RAW264.7.

For the compound `Cc1cc(COc2ccc(S(=O)(=O)C3(C(=O)NO)CCN(S(=O)(=O)C(C)C)CC3)cc2)c2ccccc2n1`, the IC50 in [2] was 10 nM; with Blood it was 14000 nM; in [3], 2140 nM; at Collagenase 3, 926 nM; in the test on RAW264.7, over 1000 nM. In addition, the Ratio IC50 in the test filed under Homo sapiens [4] and in the test filed under Homo sapiens [1] was over 90 throughout.

With `CCN(CC)C(=O)N1CCC(C(=O)NO)(S(=O)(=O)c2ccc(OCc3cc(C)nc4ccccc34)cc2)CC1`, the IC50 was 3 nM in test [2]; over 50000 nM in the test on Blood; 96 nM in test [3]; 57 nM at Collagenase 3; over 1000 nM in the test on RAW264.7.

In the case of `Cc1cc(COc2ccc(S(=O)(=O)C3(C(=O)NO)CCN(C(=O)c4ccncc4)CC3)cc2)c2ccccc2n1`, the IC50 in [2] worked out at 2 nM; in the test on Blood it was 1900 nM; in [3], 1090 nM; at Collagenase 3, 349 nM; with RAW264.7 it was 230 nM. Further, the Ratio IC50 in the test filed under Homo sapiens [4] and in the test filed under Homo sapiens [1] was over 90 in each case.

For the compound `Cc1cc(COc2ccc(S(=O)(=O)C3(C(=O)NO)CCN(C(=O)c4ccccc4)CC3)cc2)c2ccccc2n1`, the IC50 in [2] is 1 nM; with Blood, 28000 nM; in test [3], 516 nM; at Collagenase 3, 204 nM; in the test with RAW264.7 it was over 1000 nM. The Ratio IC50 in the test listed under Homo sapiens [4] and in the test listed under Homo sapiens [1] was over 90 in each case.

Turning to `Cc1cc(COc2ccc(S(=O)(=O)C3(C(=O)NO)CCN(C=O)CC3)cc2)c2ccccc2n1`, the half-inhibitory concentration (IC50) in test [2] was 2 nM; in the test on Blood it was 1300 nM; in test [10], over 12 µM; in test [3], 1400 nM; on Collagenase 3 it was 440 nM; in the test with RAW264.7 it was 68 nM. Moreover, the Ratio IC50 in the test filed under Homo sapiens [4] and in the test filed under Homo sapiens [1] was over 90 each time.

As for `Cc1cc(COc2ccc(S(=O)(=O)C3(C(=O)NO)CCNCC3)cc2)c2ccccc2n1`, the half-maximal inhibitory concentration (IC50) in test [2] is 33 nM; with Blood, 2400 nM; in [10] it was over 12 µM; in [3], over 15000 nM; at Collagenase 3, 8620 nM; in the test on RAW264.7, 334 nM. For the same compound, the Ratio IC50 in the test listed under Homo sapiens [4] and in the test filed under Homo sapiens [1] was over 90 in each case.

Consider `Cc1cc(COc2ccc(S(=O)(=O)C3(C(=O)NO)CCN(C)CC3)cc2)c2ccccc2n1`, for which the IC50 in test [2] is 11 nM; with Blood, 2400 nM; in [3], 15100 nM; at Collagenase 3 it was 1450 nM; in the test with RAW264.7, 125 nM. The Ratio IC50 in the test listed under Homo sapiens [4] and in the test filed under Homo sapiens [1] was over 90 in each case.

`Cc1cc(COc2ccc(S(=O)(=O)C3(C(=O)NO)CCN(S(C)(=O)=O)CC3)cc2)c2ccccc2n1`: the IC50 was 1.2 nM in test [2]; 2800 nM in the test with Blood; 1740 nM in test [3]; 393 nM at Collagenase 3; 345 nM in the test on RAW264.7. The Ratio IC50 in the test listed under Homo sapiens [4] and in the test filed under Homo sapiens [1] was over 90 throughout.

`CC#CCOc1ccc(S(=O)(=O)CC2(C(=O)NO)CCN(C(=O)c3ccccc3)CC2)cc1`: the 50% inhibitory concentration (IC50) in the test on Blood was 2500 nM; on Collagenase 3 it was 59 nM; in the test with RAW264.7 it was 400 nM.

For the compound `CC#CCOc1ccc(S(=O)(=O)C2(C(=O)NO)CCN(C(C)=O)CC2)cc1`, the Selectivity ratio in test [6] was under 5. The Ratio IC50 in the test filed under Homo sapiens [1] was under 10.

As for `CC(=O)N1CCC(C(=O)NO)(S(=O)(=O)c2ccc(OCc3cc(C)nc4ccccc34)cc2)CC1`, the IC50 in test [2] is 1 nM; with Blood, 1500 nM; in test [3] it was 6960 nM; on Collagenase 3 it was 1340 nM; in the test on RAW264.7, 385 nM. In addition, the Ratio IC50 in the test listed under Homo sapiens [4] and in the test filed under Homo sapiens [1] was over 90 each time.

In the case of `CC#CCOc1ccc(S(=O)(=O)CC2(C(=O)NO)CCN(C(=O)OC(C)(C)C)CC2)cc1`, the 50% inhibitory concentration (IC50) with Blood is 14000 nM; with RAW264.7, 620 nM.

As to `Cc1cc(COc2ccc(S(=O)(=O)C3(C(=O)NO)CCN(C(=O)C(C)C)CC3)cc2)c2ccccc2n1`, the IC50 was 2 nM in [2]; 14000 nM with Blood; 1240 nM in [3]; 415 nM at Collagenase 3; over 1000 nM with RAW264.7. For the same compound, the Ratio IC50 in the test listed under Homo sapiens [4] and in the test listed under Homo sapiens [1] was over 90 in each case.

Consider `Cc1cc(COc2ccc(S(=O)(=O)C3(C(=O)NO)CCN(Cc4ccc(Cl)c(Cl)c4)CC3)cc2)c2ccccc2n1`, for which the concentration for half-maximal inhibition (IC50) in [2] is 65 nM; with Blood it was over 50000 nM; in test [3], 145 nM; at Collagenase 3, 80 nM; in the test with RAW264.7 it was over 1000 nM.

For the compound `CC#CCOc1ccc(S(=O)(=O)CC2(C(=O)NO)CCNCC2)cc1`, the concentration for half-maximal inhibition (IC50) in [2] was 1 nM; in test [3] it was 1590 nM; on Collagenase 3 it was 1900 nM. Further, the Ratio IC50 in the test filed under Homo sapiens [4] and in the test filed under Homo sapiens [1] was over 1000 throughout.

In the case of `CC#CCOc1ccc(S(=O)(=O)C2(C(=O)NO)CCNCC2)cc1`, the Ratio IC50 in the test filed under Homo sapiens [1] was under 10.
